In US9131691B2, “Use of amide compounds for preventing marine biofouling” (The Hong Kong University of Science and Technology, priority 2011, dated 2015):
Converted amounts (≈) assume the structure as drawn. Read-outs that look alike come from different tables or passages of the source.

Legend:
Format in all cases: in vivo
in vivo = settings: Balanus amphitrite (barnacle) cyprid larvae, in vivo, B. amphitrite cyprids, 48 h, concentration where 50% of larvae dead
Protocol: (§1) They were kept in sea water at room temperature in lab under light illumination to induce the release of nauplii larvae. These newly released nauplii were reared to the cyprid stage on a diet of Chaetoceros gracilis Schutt at 28° C. for about 3 days until they developed into cyprids, which were ready to settle. The cyprids were collected using a 120 μm mesh sieve. Each sample of the exacts was dissolved in a small amount of DMSO and then transferred into filtered seawater to make up the test solution with a known concentration. About fifteen (15±3) cyprids per well were incubated in the dark for 48 h in a 24-well plate filled with 1 ml testing solutions per well. The numbers of the settled and swimming larvae were counted under a dissecting microscope. Three replicates were run for each sample. […] The experiment was performed in quadruplicate.
as §1, with “Each compound” for “Each”, “sample” for “sample of the exacts”

B. amphitrite cyprids = test: whole plant or invertebrate; settings: for EC50: Amphibalanus amphitrite, 48 h, read-out: EC50 (larval settlement); for LC50/EC50: B. amphitrite, ratio >10 regarded as non-toxic
Protocol: as §1
as §1, with “Each compound” for “Each”, “sample” for “sample of the exacts”

[1] = inhibition of larvae settlement of H. elegans; settings: Hydroides elegans (polychaete tubeworm) larvae, in vivo, H. elegans larvae, 48 h
Protocol: (§2) The four amide compounds were tested for their abilities to inhibit larvae settlement of the H. elegans, using an experimental model of inhibition of larvae settlement H. elegans (Zhang Y., Xiao K., Qian P. Y., et al. 2D gel-based multiplexed proteomic analysis during larval development and metamorphosis of the biofouling polychaete tubeworm Hydroides elegans. Journal of proteome research. 2010, 9(9), 4851-4860). Adults of H. elegans were collected from Yung Shue O, Hong Kong (22° 25′N, 114° 16′E). The H. elegans larvae were reared according to Qian and Pechenik (Bryan P. J., Qian P. Y., Kreider J. L.; Chia F. S. Induction of larval settlement and metamorphosis by pharmacological and conspecific associated compounds in the serpulid polychaete Hydroides elegans. Marine ecology progress series. 1997, 146: 81-90; Qiu, J. W.; Qian, P. Y. Combined effects of salinity, temperature and food on early development of the polychaete Hydroides elegans. Marine ecology progress series. 1997, 152: 79-88). Briefly, they were reared for 4 days until they reach the settlement-competent stage on a diet of chrysophyte Isochrysis galbana under an aerated condition and a 15 h light/9 h dark photoperied at 25° C. Because the attachment of H. elegans larvae requires to be induced by marine biofilm (Carpizo-Ituarte and Hadfield 1998), 24-well plates were suspended in laboratory tanks supplied with running seawater for 6 days until each well of every plate had accumulated sufficient biofilm. About fifteen (15±3) competent larvae were added to each biofilmed well of a plate containing 1.0 mL test solution containing samples at known concentrations. The 24-well plates were incubated at 28° C. for 48 h under a 15 h light/9 h dark photoperied. The percentage of larvae settlement and larvae mortality was determined by counting the settled, live individuals under a dissecting microscope. Three replicates were run for each sample. The EC50 was calculated as the concentration where 50% of the larval population was inhibited to settle as compared to the control, while LC50 was calculated as the concentration where 50% of the larval population was dead. The experiment was performed in quadruplicate. The experiment results of the inhibitory effect of the four Compounds 1-4 on larvae settlement of H. elegans were shown in FIGS. 3, 6, 9, and 12, respectively.

H. elegans larvae = test: inhibition of larvae settlement of H. elegans; settings: for EC50: Hydroides elegans, read-out: EC50 (larval settlement); for LC50/EC50: H. elegans, ratio >10 regarded as non-toxic
Protocol: as §2

[2] = inhibition of larvae settlement of B. neritina; settings: Bugula neritina (bryozoan) larvae, in vivo, B. neritina larvae, 24 h
Protocol: (§3) Adult B. neritina colonies were placed in a 12 L tank filled with 8 L filtered seawater under a bright artificial light for 1 h to induce the release of their photo-tactic larvae that were able to shortly attach and metamorphose. The actively swimming larvae were collected and added to the test solutions contain different concentrations of samples in 24-well plates at about fifteen (15±3) larvae per well. They were then incubated in the dark at room temperature for 24 h before counting the number of attached and unattached larvae under a dissecting microscope. […] The experiment was performed in quadruplicate.

B. neritina larvae = test: inhibition of larvae settlement of B. neritina; settings: for LC50/EC50: B. neritina, ratio >10 regarded as non-toxic; for EC50: Bugula neritina, read-out: EC50 (larval settlement)
Protocol: as §3

[3] = other: immersion in test solution
[4] = B. amphitrite cyprids, concentration where 50% of larvae inhibited to settle vs control
[5] = 48 h, H. elegans larvae, biofilmed wells, 48 h

## CC(C)CNC(=O)/C=C/C=C/CCCCCC/C=C/c1ccc2c(c1)OCO2 [Compound 4, (2E,4E,12E)-N-isobutyl-13-(3′,4′-methylenedioxyphenyl)-tridecatrienamide]
In vivo
  LC50 at 48 h: > 200 µg/mL
B. amphitrite cyprids
  EC50: 16.6 ± 2.9 µg/mL (≈ 43.3 µM)
  LC50/EC50: >12.1
[1]
  LC50 at 48 h: > 100 µg/mL
H. elegans larvae; H. elegans larvae, biofilmed wells, 48 h
  EC50 (larval settlement): >20.0 µg/mL
H. elegans larvae; 48 h
  EC50: > 20 µg/mL
[2]
  LC50 at 24 h: > 100 µg/mL
B. neritina larvae
  LC50/EC50: >17.6
B. neritina larvae; 24 h
  EC50: 5.7 ± 1.5 µg/mL (≈ 14.9 µM)

## O=C(/C=C/C=C/CCc1ccc2c(c1)OCO2)N1CCCCC1 [Compound 3, 1-[1-oxo-7-(3′,4′-methylenedioxyphenyl)-2E,4E-heptadienyl]-piperine]
In vivo; [3]
  LC50 at 48 h: > 100 µg/mL
B. amphitrite cyprids; [4]
  EC50: 4.2 ± 1.3 µg/mL (≈ 13.4 µM)
B. amphitrite cyprids
  LC50/EC50: >24.0
[1]; [3]
  LC50 at 48 h: > 100 µg/mL
H. elegans larvae
  LC50/EC50: >13.7
H. elegans larvae; [5]
  EC50: 7.3 ± 1.6 µg/mL (≈ 23.3 µM)
[2]; [3]
  LC50 at 24 h: > 100 µg/mL
B. neritina larvae
  LC50/EC50: >11.7
B. neritina larvae; 24 h, B. neritina larvae, 24 h
  EC50: 8.5 ± 2.1 µg/mL (≈ 27.1 µM)

## O=C(/C=C/C=C/c1ccc2c(c1)OCO2)N1CCCCC1 [Compound 2, 1-[1-oxo-5-(3′,4′-methylenedioxyphenyl)-2,4-pentadienoyl]-piperidine]
In vivo
  LC50 at 48 h: > 100 µg/mL
B. amphitrite cyprids; [4]
  EC50: 1.4 ± 0.6 µg/mL (≈ 4.91 µM)
B. amphitrite cyprids
  LC50/EC50: >71.4
[1]
  LC50 at 48 h: > 50 µg/mL
H. elegans larvae
  LC50/EC50: >38.5
H. elegans larvae; [5]
  EC50: 1.3 ± 0.8 µg/mL (≈ 4.56 µM)
[2]
  LC50 at 24 h: > 50 µg/mL
B. neritina larvae
  LC50/EC50: >30.3
B. neritina larvae; 24 h, B. neritina larvae, 24 h
  EC50: 1.6 ± 0.7 µg/mL (≈ 5.61 µM)

## O=C(CCCCCC/C=C/c1ccc2c(c1)OCO2)N1CCCCC1 [Compound 1, 1-[1-oxo-9-(3′,4′-methylenedioxyphenyl)-8E-nonenyl]-piperine]
In vivo; [3]
  LC50 at 48 h: > 100 µg/mL
B. amphitrite cyprids; [4]
  EC50: 1.1 ± 0.3 µg/mL (≈ 3.2 µM)
B. amphitrite cyprids
  LC50/EC50: >86.9
[1]; [3]
  LC50 at 48 h: > 50 µg/mL
H. elegans larvae
  LC50/EC50: >49.5
H. elegans larvae; [5]
  EC50: 1 ± 0.4 µg/mL (≈ 2.91 µM)
[2]; [3]
  LC50 at 24 h: > 10 µg/mL
B. neritina larvae; B. neritina larvae, 24 h
  EC50 (larval settlement): 0.7 ± 0.2 µg/mL (≈ 2.04 µM)
B. neritina larvae
  LC50/EC50: >14.7
